Results: the supplement of paper PMC11208160
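Further: IS621 recombinase and bridge RNA in Escherichia coli cells.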

Test: recombinant barcode read abundance after kanamycin selection (control-corrected) (log10(CPM+1)); higher = more efficient recombination; sequences stand for … in AGTGCAGAGAAAATCGGCCAGTTTTCTCTGCCTGCAGTCCGCATGCCGT…AGATTTATGCAGCGGACTGCCTTTCTCCCAAAGTGATAAACCGGACAGTATCATGGACCGGTTTTCCCGGTAATCCGTATTTGCAAGGTTGGTTTCACT; site = the 11-nt target
Method in brief: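 In a pooled screen in E. coli, targets were paired with target-binding loops of the IS621 bridge RNA. Each oligo carried a promoter, a target, a barcode and the first 104 bridge RNA bases driven by J23119, and was Gibson-cloned into a vector holding the remaining 73 bp and a T7-inducible recombinase before co-electroporation with a donor plasmid. Duplicate platings went onto chloramphenicol/ampicillin LB agar as the control or onto chloramphenicol/ampicillin/kanamycin with 0.1 mM IPTG. Recombination efficiency is the averaged, control-corrected count per million of barcodes at recombinant junctions, given as log10(CPM+1).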
For “GTGTTTCCTTGGGTTCTAACCTGTTGCAT (site GTGTGTCCTAT)”, the “recombinant barcode read abundance (log10)” value was 0.0468.
With “GTGTTTCCTTGGGTTCTAACCTGTTGCAT (site GTGTTTCCTAT)” the “recombinant barcode read abundance (log10)” value was 0.832.
In the case of “GTTAACTCTTGGGTTCTAACCTGTTGCCT (site GTAAACTCTAG)”, the “recombinant barcode read abundance (log10)” value is reported as 0.2.
With “GTTAACTCTTGGGTTCTAACCTGTTGCCT (site GTCAACTCTAG)” the “recombinant barcode read abundance (log10)” value was 0.51.
With “GTTAACTCTTGGGTTCTAACCTGTTGCCT (site GTGAACTCTAG)” the “recombinant barcode read abundance (log10)” value was 0.34.
With “GTTAACTCTTGGGTTCTAACCTGTTGCCT (site GTTAACTCTAG)” the “recombinant barcode read abundance (log10)” value was 0.877.
In the case of “GTTACACCTTGGGTTCTAACCTGTTGCCT (site GTTACACCTAG)”, the “recombinant barcode read abundance (log10)” value is reported as 0.848.
In the case of “GTTACACCTTGGGTTCTAACCTGTTGCCT (site GTTTCACCTAG)”, the “recombinant barcode read abundance (log10)” value is reported as 0.187.
With “GTTACTACTTGGGTTCTAACCTGTTGCCG (site GTTACTACTCG)” the “recombinant barcode read abundance (log10)” value was 0.13.
In the case of “GTTACTACTTGGGTTCTAACCTGTTGCCG (site TGGTACCCTTA)”, the “recombinant barcode read abundance (log10)” value is reported as 0.0233.
For “GTTCAGACTTGGGTTCTAACCTGTTGCTT (site CCAAGTCCTTG)”, the “recombinant barcode read abundance (log10)” value was 0.284.
With “GTTCAGACTTGGGTTCTAACCTGTTGCTT (site GTTCAGACTAA)” the “recombinant barcode read abundance (log10)” value was 1.06.
In the case of “GTTCATCCTTGGGTTCTAACCTGTTGCCT (site GATCATCCTAG)”, the “recombinant barcode read abundance (log10)” value is reported as 0.48.
In the case of “GTTCATCCTTGGGTTCTAACCTGTTGCCT (site GTTCATCCTAG)”, the “recombinant barcode read abundance (log10)” value is reported as 1.02.
In the case of “GTTCGTCCTTGGGTTCTAACCTGTTGCCA (site CCAATGTCTAC)”, the “recombinant barcode read abundance (log10)” value is reported as 0.104.
For “GTTCGTCCTTGGGTTCTAACCTGTTGCCA (site GTTCGTCCTTG)”, the “recombinant barcode read abundance (log10)” value was 0.0879.
For “GTTGGGACTTGGGTTCTAACCTGTTGCCT (site GTTGGAACTAC)”, the “recombinant barcode read abundance (log10)” value was 0.109.
For “GTTGGGACTTGGGTTCTAACCTGTTGCCT (site GTTGGGACTAG)”, the “recombinant barcode read abundance (log10)” value was 2.
In the case of “GTTGGGGCTTGGGTTCTAACCTGTTGCGG (site CTTGGGCCTCC)”, the “recombinant barcode read abundance (log10)” value is reported as 0.019.
For “GTTGGGGCTTGGGTTCTAACCTGTTGCGG (site GTTGGGGCTCC)”, the “recombinant barcode read abundance (log10)” value was 2.
With “GTTGGTCCTTGGGTTCTAACCTGTTGCCT (site GTGGTTCCTAG)” the “recombinant barcode read abundance (log10)” value was 0.114.
For “GTTGGTCCTTGGGTTCTAACCTGTTGCCT (site GTTGGTCCTAG)”, the “recombinant barcode read abundance (log10)” value was 1.75.
For “GTTTAATCTTGGGTTCTAACCTGTTGCCT (site GTTTAATCTAG)”, the “recombinant barcode read abundance (log10)” value was 0.216.
In the case of “GTTTAATCTTGGGTTCTAACCTGTTGCCT (site GTTTAGTCTAG)”, the “recombinant barcode read abundance (log10)” value is reported as 0.233.
In the case of “GTTTATACTTGGGTTCTAACCTGTTGCCA (site AGAGTAGCTGT)”, the “recombinant barcode read abundance (log10)” value is reported as 0.0898.
For “GTTTATACTTGGGTTCTAACCTGTTGCCA (site GTTTATACTTG)”, the “recombinant barcode read abundance (log10)” value was 0.41.
With “GTTTCACCTTGGGTTCTAACCTGTTGCCT (site GTTACACCTAG)” the “recombinant barcode read abundance (log10)” value was 0.128.
In the case of “GTTTCACCTTGGGTTCTAACCTGTTGCCT (site GTTTCACCTAG)”, the “recombinant barcode read abundance (log10)” value is reported as 0.491.
With “GTTTCGACTTGGGTTCTAACCTGTTGCCT (site GTTTCGACTAG)” the “recombinant barcode read abundance (log10)” value was 0.128.
In the case of “GTTTCGACTTGGGTTCTAACCTGTTGCCT (site GTTTCGTCTAG)”, the “recombinant barcode read abundance (log10)” value is reported as 0.173.
With “GTTTCGACTTGGGTTCTAACCTGTTGCTA (site GTTTCGACTTA)” the “recombinant barcode read abundance (log10)” value was 0.238.
In the case of “GTTTCGACTTGGGTTCTAACCTGTTGCTA (site TCGGATGCTAT)”, the “recombinant barcode read abundance (log10)” value is reported as 0.188.
For “GTTTCGGCTTGGGTTCTAACCTGTTGCCT (site GTTACGGCTAG)”, the “recombinant barcode read abundance (log10)” value was 0.041.
With “GTTTCGGCTTGGGTTCTAACCTGTTGCCT (site GTTCCGGCTAG)” the “recombinant barcode read abundance (log10)” value was 0.357.
For “GTTTCGGCTTGGGTTCTAACCTGTTGCCT (site GTTGCGGCTAG)”, the “recombinant barcode read abundance (log10)” value was 0.101.
For “GTTTCGGCTTGGGTTCTAACCTGTTGCCT (site GTTTCGGCTAG)”, the “recombinant barcode read abundance (log10)” value was 0.342.
In the case of “GTTTGGCCTTGGGTTCTAACCTGTTGCTT (site GTTTGACCTAA)”, the “recombinant barcode read abundance (log10)” value is reported as 0.
With “GTTTGGCCTTGGGTTCTAACCTGTTGCTT (site GTTTGCCCTAA)” the “recombinant barcode read abundance (log10)” value was 0.154.
With “GTTTGGCCTTGGGTTCTAACCTGTTGCTT (site GTTTGGCCTAA)” the “recombinant barcode read abundance (log10)” value was 0.541.
With “GTTTGGCCTTGGGTTCTAACCTGTTGCTT (site GTTTGTCCTAA)” the “recombinant barcode read abundance (log10)” value was 0.167.
In the case of “TAAAACCCTTGGGTTCTAACCTGTTGCAT (site CCGCGGACTTA)”, the “recombinant barcode read abundance (log10)” value is reported as 0.15.
For “TAAAACCCTTGGGTTCTAACCTGTTGCAT (site TAAAACCCTAT)”, the “recombinant barcode read abundance (log10)” value was 0.713.
For “TAAAAGGCTTGGGTTCTAACCTGTTGCCT (site TAAAAGACTAG)”, the “recombinant barcode read abundance (log10)” value was 0.102.
With “TAAAAGGCTTGGGTTCTAACCTGTTGCCT (site TAAAAGCCTAG)” the “recombinant barcode read abundance (log10)” value was 0.0288.
With “TAAAAGGCTTGGGTTCTAACCTGTTGCCT (site TAAAAGGCTAG)” the “recombinant barcode read abundance (log10)” value was 0.0132.
In the case of “TAAAAGGCTTGGGTTCTAACCTGTTGCCT (site TAAAAGTCTAG)”, the “recombinant barcode read abundance (log10)” value is reported as 0.142.
With “TAAAATACTTGGGTTCTAACCTGTTGCCT (site TAAAATACTAG)” the “recombinant barcode read abundance (log10)” value was 0.1.
In the case of “TAAAATACTTGGGTTCTAACCTGTTGCCT (site TAGATTACTAG)”, the “recombinant barcode read abundance (log10)” value is reported as 0.272.
With “TAACACTCTTGGGTTCTAACCTGTTGCTT (site GAACACTCTCA)” the “recombinant barcode read abundance (log10)” value was 0.105.
For “TAACACTCTTGGGTTCTAACCTGTTGCTT (site TAACACTCTAA)”, the “recombinant barcode read abundance (log10)” value was 1.51.
With “TAACGTACTTGGGTTCTAACCTGTTGCAT (site TAACATACTAT)” the “recombinant barcode read abundance (log10)” value was 0.0677.
In the case of “TAACGTACTTGGGTTCTAACCTGTTGCAT (site TAACCTACTAT)”, the “recombinant barcode read abundance (log10)” value is reported as 0.135.
With “TAACGTACTTGGGTTCTAACCTGTTGCAT (site TAACGTACTAT)” the “recombinant barcode read abundance (log10)” value was 0.696.
With “TAACGTACTTGGGTTCTAACCTGTTGCAT (site TAACTTACTAT)” the “recombinant barcode read abundance (log10)” value was 0.103.
In the case of “TAACTAGCTTGGGTTCTAACCTGTTGCTA (site GTGTATACTAT)”, the “recombinant barcode read abundance (log10)” value is reported as 0.212.
For “TAACTAGCTTGGGTTCTAACCTGTTGCTA (site TAACTAGCTTA)”, the “recombinant barcode read abundance (log10)” value was 0.141.
For “TAAGGAGCTTGGGTTCTAACCTGTTGCCT (site TAAGGAGCTAG)”, the “recombinant barcode read abundance (log10)” value was 1.39.
For “TAAGGAGCTTGGGTTCTAACCTGTTGCCT (site TAGGGCGCTAG)”, the “recombinant barcode read abundance (log10)” value was 0.0289.
With “TAAGGGACTTGGGTTCTAACCTGTTGCTA (site CGCCCTTCTAG)” the “recombinant barcode read abundance (log10)” value was 0.239.
With “TAAGGGACTTGGGTTCTAACCTGTTGCTA (site TAAGGGACTTA)” the “recombinant barcode read abundance (log10)” value was 2.26.
For “TAAGGTACTTGGGTTCTAACCTGTTGCTT (site TAAAGTACTAA)”, the “recombinant barcode read abundance (log10)” value was 0.0963.
With “TAAGGTACTTGGGTTCTAACCTGTTGCTT (site TAACGTACTAA)” the “recombinant barcode read abundance (log10)” value was 0.151.
With “TAAGGTACTTGGGTTCTAACCTGTTGCTT (site TAAGGTACTAA)” the “recombinant barcode read abundance (log10)” value was 1.26.
With “TAAGGTACTTGGGTTCTAACCTGTTGCTT (site TAATGTACTAA)” the “recombinant barcode read abundance (log10)” value was 0.0967.
In the case of “TAAGGTCCTTGGGTTCTAACCTGTTGCAG (site TAAGGTCCTCT)”, the “recombinant barcode read abundance (log10)” value is reported as 2.47.
In the case of “TAAGGTCCTTGGGTTCTAACCTGTTGCAG (site TAGGGTCCTCC)”, the “recombinant barcode read abundance (log10)” value is reported as 0.158.
In the case of “TAAGTCACTTGGGTTCTAACCTGTTGCCT (site GAAGTCACTAG)”, the “recombinant barcode read abundance (log10)” value is reported as 0.0452.
With “TAAGTCACTTGGGTTCTAACCTGTTGCCT (site TAAGTCACTAG)” the “recombinant barcode read abundance (log10)” value was 1.9.
With “TAAGTGTCTTGGGTTCTAACCTGTTGCCT (site TAAGTGTCTAG)” the “recombinant barcode read abundance (log10)” value was 2.56.
In the case of “TAAGTGTCTTGGGTTCTAACCTGTTGCCT (site TACGTGTCTAG)”, the “recombinant barcode read abundance (log10)” value is reported as 0.171.
With “TAAGTGTCTTGGGTTCTAACCTGTTGCCT (site TAGGTGTCTAG)” the “recombinant barcode read abundance (log10)” value was 0.314.
In the case of “TAAGTGTCTTGGGTTCTAACCTGTTGCCT (site TATGTGTCTAG)”, the “recombinant barcode read abundance (log10)” value is reported as 1.03.
In the case of “TAATGAACTTGGGTTCTAACCTGTTGCCT (site TAATGAACTAG)”, the “recombinant barcode read abundance (log10)” value is reported as 0.32.
With “TAATGAACTTGGGTTCTAACCTGTTGCCT (site TAATGTACTAG)” the “recombinant barcode read abundance (log10)” value was 0.216.
For “TAATGACCTTGGGTTCTAACCTGTTGCAT (site TAATGACCTAA)”, the “recombinant barcode read abundance (log10)” value was 0.0652.
With “TAATGACCTTGGGTTCTAACCTGTTGCAT (site TAATGACCTAT)” the “recombinant barcode read abundance (log10)” value was 1.67.
For “TAATGGTCTTGGGTTCTAACCTGTTGCAT (site TAATGGTCTAT)”, the “recombinant barcode read abundance (log10)” value was 1.61.
For “TAATGGTCTTGGGTTCTAACCTGTTGCAT (site TAATGTTCTAT)”, the “recombinant barcode read abundance (log10)” value was 0.065.
For “TAATTGCCTTGGGTTCTAACCTGTTGCCT (site TAATTGCCTAG)”, the “recombinant barcode read abundance (log10)” value was 0.645.
In the case of “TAATTGCCTTGGGTTCTAACCTGTTGCCT (site TACTTGCCTAG)”, the “recombinant barcode read abundance (log10)” value is reported as 0.324.
In the case of “TAATTGCCTTGGGTTCTAACCTGTTGCCT (site TAGTTGCCTAG)”, the “recombinant barcode read abundance (log10)” value is reported as 0.474.
In the case of “TAATTGCCTTGGGTTCTAACCTGTTGCCT (site TATTTGCCTAG)”, the “recombinant barcode read abundance (log10)” value is reported as 0.0725.
For “TACAAGCCTTGGGTTCTAACCTGTTGCCT (site TACAAGCCTAG)”, the “recombinant barcode read abundance (log10)” value was 0.338.
With “TACAAGCCTTGGGTTCTAACCTGTTGCCT (site TAGAAGCCTCG)” the “recombinant barcode read abundance (log10)” value was 0.0913.
For “TACAAGGCTTGGGTTCTAACCTGTTGCGG (site TACAAGGCTCC)”, the “recombinant barcode read abundance (log10)” value was 2.68.
For “TACAAGGCTTGGGTTCTAACCTGTTGCGG (site TACAAGTCTCC)”, the “recombinant barcode read abundance (log10)” value was 0.292.
